Test results: PubChem BioAssay (NCI)
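Grown in 96-well plates, cells were treated for 48 hours with each compound at five concentrations. Insufficient inhibition: endpoint recorded as highest concentration tested. TGI marks complete inhibition of growth.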

What was measured:
Test in all cases: inhibition of tumour cell growth, NCI panel, 48 h
BT-549 breast = system: BT-549 breast
HCC-2998 colon = system: HCC-2998 colon
HCT-15 colon = system: HCT-15 colon
HL-60(TB) leukemia = system: HL-60(TB) leukemia
HOP-62 NSCLC = system: HOP-62 NSCLC
K-562 leukemia = system: K-562 leukemia
KM12 colon = system: KM12 colon
MDA-N = system: MDA-N
MOLT-4 leukemia = system: MOLT-4 leukemia
NCI-H460 lung = system: NCI-H460 lung
NCI/ADR-RES ovarian = system: NCI/ADR-RES ovarian
OVCAR-3 ovarian = system: OVCAR-3 ovarian
OVCAR-4 ovarian = system: OVCAR-4 ovarian
OVCAR-5 ovarian = system: OVCAR-5 ovarian
OVCAR-8 ovarian = system: OVCAR-8 ovarian
SK-MEL-2 melanoma = system: SK-MEL-2 melanoma
SK-MEL-28 melanoma = system: SK-MEL-28 melanoma
SK-OV-3 ovarian = system: SK-OV-3 ovarian
SN12C renal = system: SN12C renal
UO-31 renal = system: UO-31 renal

| Compound | TGI (BT-549 breast) [µM] | TGI (HCC-2998 colon) [µM] | TGI (HCT-15 colon) [µM] | TGI (HL-60(TB) leukemia) [µM] | TGI (HOP-62 NSCLC) [µM] | TGI (K-562 leukemia) [µM] | TGI (KM12 colon) [µM] | TGI (MDA-N) [µM] | TGI (MOLT-4 leukemia) [µM] | TGI (NCI-H460 lung) [µM] | TGI (NCI/ADR-RES ovarian) [µM] | TGI (OVCAR-3 ovarian) [µM] | TGI (OVCAR-4 ovarian) [µM] | TGI (OVCAR-5 ovarian) [µM] | TGI (OVCAR-8 ovarian) [µM] | TGI (SK-MEL-2 melanoma) [µM] | TGI (SK-MEL-28 melanoma) [µM] | TGI (SK-OV-3 ovarian) [µM] | TGI (SN12C renal) [µM] | TGI (UO-31 renal) [µM] |
| --- | --- | --- | --- | --- | --- | --- | --- | --- | --- | --- | --- | --- | --- | --- | --- | --- | --- | --- | --- | --- |
| COc1ccc2nc3ccc(OC)cc3c(S(=O)Cc3ccc([N+](=O)[O-])cc3)c2c1 (centres undefined) | 33.4 | 34 | 10.5 | 6.97 | 30.7 | > 100 | 42 | 29.7 | > 23.2 | 67.4 | 62.3 | 14.2 | 23.7 | 34.5 | 13.1 | 34.9 | 15.7 | 40.1 | 9.94 | 12.9 |
| CCC1(O)C=CC(=O)C=C1 | > 100 | > 100 | 55.5 | > 100 | 67.5 | > 100 | 33.5 | > 100 | > 100 | > 83.2 | > 66.8 | 69.6 | > 100 | > 100 | > 100 | > 100 | 57.6 | > 100 | > 100 | 36.7 |
| O=C(CCSC(CC(=O)c1ccc(Cl)cc1)c1ccc(Cl)cc1)Nc1ccc(Cl)cc1 (centres undefined) | 27.1 | 27 | 24.2 | 20.4 | 29.1 | 18.6 | 12.4 | 26 | 11.5 | 28.6 | 40.2 | 27.1 | 35.5 | 31.6 | 29.1 | 28.9 | 29.4 | 42.3 | 24.8 | 26.9 |
| NC1=CN(CCCO)C2=N/C(=C\c3ccco3)C(=O)N12 | > 100 | > 100 | > 100 | > 100 | > 100 | > 100 | > 100 | > 100 | > 100 | > 100 | > 100 | > 100 | > 100 | > 100 | > 100 | > 100 | > 100 | > 100 | > 100 | > 100 |
| O=C1CC(NC(=O)C(F)(F)F)c2c(Br)sc(N3CCC(c4ccccc4)CC3)c21 (centres undefined) | > 100 | > 100 | > 100 | > 100 |  | > 100 | > 100 | > 100 | > 100 | > 100 | > 100 | 95.8 | 92.6 | > 100 | > 100 | > 100 |  | > 100 | > 100 | > 100 |
| O=c1c2cc([N+](=O)[O-])ccc2n2n1Cc1ccccc1CC2 | > 100 | > 100 | > 100 | > 100 | > 100 | > 100 | > 100 | > 100 | > 100 | > 100 | > 100 | > 100 | > 100 | > 100 | > 100 | > 100 | > 100 | > 100 | > 100 | > 100 |
| O=C1Nc2ccccc2C(=O)OC(Cc2ccccc2)=Nc2ccccc21 | > 100 | > 100 | > 100 | > 100 | > 100 | > 100 | > 100 | > 100 | > 100 | > 100 | > 100 | > 100 | > 100 | > 100 | > 100 | > 100 | > 100 | > 100 | > 100 | > 100 |
| COC(=O)OC[C@H]1O[C@@H](n2cc(C)c(=O)[nH]c2=O)CC1OC(=O)OC (some centres undefined) | > 100 | > 100 | > 100 | > 100 | > 100 | > 100 | > 100 | > 100 | > 100 | > 100 | > 100 | > 100 | > 100 | > 100 | > 100 | > 100 | > 100 | > 100 | > 100 | > 100 |
| CCOC(=O)NNC(=O)NCCNC(=O)NNC(=O)OCC | > 100 | > 100 | > 100 | > 100 |  | > 100 | > 100 | > 100 | > 100 | > 100 | > 100 | > 100 | > 100 | > 100 | > 100 | > 100 | > 100 | > 100 | > 100 | > 100 |
| CSc1n[nH]c(N)c1C(=O)Nc1ccc(Cl)cc1 | > 100 | > 100 | > 100 | > 100 |  | > 100 | > 100 | > 100 | > 100 | > 100 | > 100 | > 100 | > 100 | > 100 | > 100 | > 100 | > 100 | > 100 | > 100 | > 100 |
| CCOC(=O)CC(C)C(C#N)(OP1(=O)OC(c2ccccc2)C(C)N1C)c1ccccc1 (centres undefined) | > 100 | > 100 | > 100 | 78.7 | > 100 | > 100 | > 100 | > 100 | 73.1 | > 100 | > 100 | > 100 |  | > 100 | > 100 | > 100 | > 100 | > 100 | > 100 | > 100 |
| CC1C(c2ccc(N(C)C)cc2)c2cc3c(cc2OC1N1CCCC1)OCO3 (centres undefined) | > 100 | > 100 | > 100 | 73.6 | > 78.6 | 97.3 | > 100 | 46.9 | > 100 | > 95.3 | > 94.1 | > 100 | > 100 | > 100 | > 100 | > 82.6 | > 100 |  | > 100 | > 100 |
